Assays:
[1] = tested on: surinam grass; assay: Test B pre/postemergence surinam grass; type: in vivo, Brachiaria decumbens; details: for B. signalgrass plant response rating (0 to 10 scale): 0 is no effect
Procedure, shortened: (§1)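 Herbicidal effect was estimated by eye on a ten-point control scale after plants spent twelve to sixteen days in a greenhouse following soil or foliar treatment. Foliar sprays targeted plants at one to four leaves; all doses were formulated in a non-phytotoxic solvent with surfactant.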

[2] = tested on: cocklebur; assay: Test B pre/postemergence cocklebur; type: in vivo, Xanthium strumarium; details: for Cocklebur plant response rating (0 to 10 scale): 0 is no effect
Procedure, shortened: as §1

[3] = tested on: corn; assay: Test B pre/postemergence corn; type: in vivo, Zea mays; details: for Corn plant response rating (0 to 10 scale): 0 is no effect
Procedure, shortened: as §1

[4] = tested on: crabgrass; assay: Test B pre/postemergence crabgrass; type: in vivo, Digitaria sanguinalis; details: for Crabgrass plant response rating (0 to 10 scale): 0 is no effect
Procedure, shortened: as §1

[5] = tested on: winter wheat; assay: Test E winter wheat; type: in vivo, Triticum aestivum; details: Postemergence; for Plant response rating, Wheat (winter): 0 to 100 scale; for Wheat (winter) plant response rating: Rate 250 g/ha, 0 to 100 scale where 0 is no effect and 100 is complete control
Procedure, shortened: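 Plants were grown under normal greenhouse practice; for postemergence, in sandy loam soil mixed 60:40 with potting mix, treated at the 1- to 4-leaf stage. The compound was in a non-phytotoxic solvent carrying a surfactant. After roughly 21 to 28 days plants were scored visually against untreated plants.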

[6] = tested on: blackgrass; assay: Test E blackgrass; type: in vivo, Alopecurus myosuroides; details: Preemergence; for Blackgrass plant response rating (0 to 100 scale): Rate 250 g/ha; for Plant response rating, Blackgrass: 0 to 100 scale where 0 is no effect and 100 is complete control
[7] = tested on: green foxtail; assay: Test E green foxtail; type: in vivo, Setaria viridis; details: Preemergence; for Green foxtail plant response rating (0 to 100 scale): Rate 250 g/ha; for Plant response rating, Green foxtail: 0 to 100 scale where 0 is no effect and 100 is complete control
[8] = tested on: Italian ryegrass; assay: Test E Italian ryegrass; type: in vivo, Lolium multiflorum; details: Preemergence; for I. Ryegrass plant response rating (0 to 100 scale): Rate 250 g/ha; for Plant response rating, I. Ryegrass: 0 to 100 scale where 0 is no effect and 100 is complete control
[9] = tested on: winter wheat; assay: Test E winter wheat; type: in vivo, Triticum aestivum; details: Preemergence; for Wheat (winter) plant response rating (0 to 100 scale): Rate 250 g/ha; for Plant response rating, Wheat (winter): 0 to 100 scale where 0 is no effect and 100 is complete control
[10] = tested on: wild oat; assay: Test E wild oat; type: in vivo, Avena fatua; details: Preemergence; for Wild oat plant response rating (0 to 100 scale): Rate 250 g/ha; for Plant response rating, Wild oat: 0 to 100 scale where 0 is no effect and 100 is complete control
[11] = tested on: winter barley; assay: Test E winter barley; type: in vivo, Hordeum vulgare; details: Preemergence; for Barley (winter) plant response rating (0 to 100 scale): Rate 250 g/ha; for Plant response rating, Barley (winter): 0 to 100 scale where 0 is no effect and 100 is complete control
[12] = Postemergence, Rate 125 g/ha, scale of 0 to 10 where 0 is no effect and 10 is complete control
[13] = Preemergence, Rate 62 g/ha, scale of 0 to 10 where 0 is no effect and 10 is complete control
[14] = Preemergence, Rate 125 g/ha, 10 is complete control
[15] = Preemergence, Rate 250 g/ha, scale 0 to 10, 0 is no effect, 10 is complete control
[16] = Preemergence, Rate 500 g/ha, scale 0 to 10 (0 no effect, 10 complete control)
[17] = Rate 62 g/ha, Postemergence, scale of 0 to 10 where 0 is no effect and 10 is complete control
[18] = Rate 250 g/ha, Postemergence, scale 0 to 10, 0 is no effect, 10 is complete control
[19] = Rate 500 g/ha, Postemergence, scale 0 to 10, 0 no effect, 10 complete control
[20] = Rate 500 g/ha, Postemergence, scale 0 to 10
[21] = Rate 1000 g/ha, 0 is no effect and 100 is complete control
[22] = Rate 500 g/ha, 0 no effect, 100 complete control

## CC1CCCCC1n1c(=O)on(C(=O)N(c2ccccc2)C(C)C)c1=O (stereo not shown) [Compound 162]
[1]; [12]
  B. signalgrass plant response rating: 0
[1]; [13]
  B. signalgrass plant response rating: 0
[1]; [14]
  B. signalgrass plant response rating (0 to 10 scale): 2
[1]; [15]
  B. signalgrass plant response rating: 3
[1]; [16]
  B. signalgrass plant response rating: 7
[1]; [17]
  B. signalgrass plant response rating: 0
[1]; [18]
  Plant response rating, B. signalgrass: 0
[1]; [19]
  B. signalgrass plant response rating: 4
[2]; [12]
  Cocklebur plant response rating: 0
[2]; [13]
  Cocklebur plant response rating: 0
[2]; [14]
  Cocklebur plant response rating (0 to 10 scale): 0
[2]; [15]
  Cocklebur plant response rating: 0
[2]; [16]
  Cocklebur plant response rating: 0
[2]; [17]
  Cocklebur plant response rating: 0
[2]; [18]
  Plant response rating, Cocklebur: 0
[2]; [20]
  Cocklebur plant response rating: 2
[3]; [12]
  Corn plant response rating: 0
[3]; [13]
  Corn plant response rating: 0
[3]; [14]
  Corn plant response rating (0 to 10 scale): 0
[3]; [15]
  Corn plant response rating: 0
[3]; [16]
  Corn plant response rating: 0
[3]; [17]
  Corn plant response rating: 0
[3]; [18]
  Plant response rating, Corn: 0
[3]; [20]
  Corn plant response rating: 0
[4]; [12]
  Crabgrass plant response rating: 2
[4]; [13]
  Crabgrass plant response rating: 6
[4]; [14]
  Crabgrass plant response rating (0 to 10 scale): 8
[4]; [15]
  Crabgrass plant response rating: 9
[4]; [16]
  Crabgrass plant response rating: 10
[4]; [17]
  Crabgrass plant response rating: 0
[4]; [18]
  Plant response rating, Crabgrass: 6
[4]; [20]
  Crabgrass plant response rating: 8
[5]; [21]
  Plant response rating, Wheat (winter): 50
[5]; [22]
  Plant response rating, Wheat (winter): 40
[5]
  Wheat (winter) plant response rating: 30
[6]
  Blackgrass plant response rating (0 to 100 scale): 55
[6]; Rate 500 g/ha
  Plant response rating, Blackgrass: 60
[6]; Rate 1000 g/ha
  Plant response rating, Blackgrass: 55
[7]
  Green foxtail plant response rating (0 to 100 scale): 60
[7]; Rate 500 g/ha
  Plant response rating, Green foxtail: 65
[7]; Rate 1000 g/ha
  Plant response rating, Green foxtail: 85
[8]
  I. Ryegrass plant response rating (0 to 100 scale): 50
[8]; Rate 500 g/ha
  Plant response rating, I. Ryegrass: 65
[8]; Rate 1000 g/ha
  Plant response rating, I. Ryegrass: 70
[9]
  Wheat (winter) plant response rating (0 to 100 scale): 30
[9]; Rate 500 g/ha
  Plant response rating, Wheat (winter): 15
[9]; Rate 1000 g/ha
  Plant response rating, Wheat (winter): 40
[10]
  Wild oat plant response rating (0 to 100 scale): 50
[10]; Rate 500 g/ha
  Plant response rating, Wild oat: 50
[10]; Rate 1000 g/ha
  Plant response rating, Wild oat: 60
[11]
  Barley (winter) plant response rating (0 to 100 scale): 30
[11]; Rate 500 g/ha
  Plant response rating, Barley (winter): 30
[11]; Rate 1000 g/ha
  Plant response rating, Barley (winter): 40

## CC(C)N(C(=O)n1oc(=O)n([C@@H](C)c2ccccc2)c1=O)c1ccc(F)cc1 [Compound 167]
[1]; [12]
  B. signalgrass plant response rating: 0
[1]; [13]
  B. signalgrass plant response rating: 2
[1]; [14]
  B. signalgrass plant response rating (0 to 10 scale): 5
[1]; [15]
  B. signalgrass plant response rating: 5
[1]; [16]
  B. signalgrass plant response rating: 8
[1]; [17]
  B. signalgrass plant response rating: 0
[1]; [18]
  Plant response rating, B. signalgrass: 0
[1]; [19]
  B. signalgrass plant response rating: 0
[2]; [12]
  Cocklebur plant response rating: 0
[2]; [13]
  Cocklebur plant response rating: 0
[2]; [14]
  Cocklebur plant response rating (0 to 10 scale): 0
[2]; [15]
  Cocklebur plant response rating: 0
[2]; [16]
  Cocklebur plant response rating: 0
[2]; [17]
  Cocklebur plant response rating: 0
[2]; [18]
  Plant response rating, Cocklebur: 0
[2]; [20]
  Cocklebur plant response rating: 2
[3]; [12]
  Corn plant response rating: 0
[3]; [13]
  Corn plant response rating: 0
[3]; [14]
  Corn plant response rating (0 to 10 scale): 0
[3]; [15]
  Corn plant response rating: 0
[3]; [16]
  Corn plant response rating: 0
[3]; [17]
  Corn plant response rating: 0
[3]; [18]
  Plant response rating, Corn: 0
[3]; [20]
  Corn plant response rating: 0
[4]; [12]
  Crabgrass plant response rating: 3
[4]; [13]
  Crabgrass plant response rating: 7
[4]; [14]
  Crabgrass plant response rating (0 to 10 scale): 8
[4]; [15]
  Crabgrass plant response rating: 10
[4]; [16]
  Crabgrass plant response rating: 10
[4]; [17]
  Crabgrass plant response rating: 0
[4]; [18]
  Plant response rating, Crabgrass: 9
[4]; [20]
  Crabgrass plant response rating: 9
[5]; [21]
  Plant response rating, Wheat (winter): 50
[5]; [22]
  Plant response rating, Wheat (winter): 40
[5]
  Wheat (winter) plant response rating: 30
[6]
  Blackgrass plant response rating (0 to 100 scale): 50
[6]; Rate 500 g/ha
  Plant response rating, Blackgrass: 60
[6]; Rate 1000 g/ha
  Plant response rating, Blackgrass: 80
[7]
  Green foxtail plant response rating (0 to 100 scale): 60
[7]; Rate 500 g/ha
  Plant response rating, Green foxtail: 85
[7]; Rate 1000 g/ha
  Plant response rating, Green foxtail: 100
[8]
  I. Ryegrass plant response rating (0 to 100 scale): 30
[8]; Rate 500 g/ha
  Plant response rating, I. Ryegrass: 65
[8]; Rate 1000 g/ha
  Plant response rating, I. Ryegrass: 80
[9]
  Wheat (winter) plant response rating (0 to 100 scale): 10
[9]; Rate 500 g/ha
  Plant response rating, Wheat (winter): 20
[9]; Rate 1000 g/ha
  Plant response rating, Wheat (winter): 30
[10]
  Wild oat plant response rating (0 to 100 scale): 30
[10]; Rate 500 g/ha
  Plant response rating, Wild oat: 40
[10]; Rate 1000 g/ha
  Plant response rating, Wild oat: 50
[11]
  Barley (winter) plant response rating (0 to 100 scale): 40
[11]; Rate 500 g/ha
  Plant response rating, Barley (winter): 40
[11]; Rate 1000 g/ha
  Plant response rating, Barley (winter): 20

Reference: US6737383B1, “Herbicidal oxadiazolidines” (priority 1999, dated 2004)
